According to ChEMBL document CHEMBL4825698, “Identification of novel benzothiopyranones with ester and amide motifs derived from active metabolite as promising leads against Mycobacterium tuberculosis” (Eur J Med Chem, 2021):
≈ marks a conversion by molar mass, not a printed value.

Columns and labels:
[1] = tested on: Mycobacterium tuberculosis; test: Antimycobacterial activity against Mycobacterium tuberculosis H37Rv assessed as bacterial growth inhibition incubated for 7 days by MABA assay; assay type: functional; details: 168 h, time 7 day
[2] = Metabolic stability in pooled mouse hepatocytes assessed as parent compound remaining after 30 mins; assay type: ADME, cell-based, Hepatocyte; details: read-out: Stabilty
[3] = Metabolic Stability in pooled human hepatocytes assessed as parent compound remaining after 30 mins; assay type: ADME, cell-based, Hepatocyte; details: read-out: Stabilty
Vero = test: Cytotoxicity against African green monkey Vero cells assessed as reduction in cell viability after 48 hrs by MTT assay; assay type: cell-based; details: Chlorocebus sabaeus
[4] = Metabolic stability in pooled mouse hepatocytes assessed as half life; assay type: ADME, cell-based, Hepatocyte
[5] = Metabolic stability in pooled human hepatocytes assessed as half life; assay type: ADME, cell-based, Hepatocyte
[6] = Solubility of the compound in water measured after 20 mins by HPLC analysis; assay type: physicochemical
[7] = Toxicity in BALB/c mouse infected with Mycobacterium tuberculosis H37Rv assessed as body weight at 25 mg/kg, po via gavage administered for 3 weeks starting from day 10 post infection and administered 5 times a week (reference value: 24.59 +/- 0.61 g); assay type: organism-based; details: in vivo, 504 h
[8] = tested on: Mycobacterium tuberculosis; test: (§1) Antimycobacterial activity against Mycobacterium tuberculosis H37Rv infected in BALB/c mouse model of acute tuberculosis infection assessed as log change in bacterial burden in mouse lung at 25 mg/kg, po via gavage administered for 3 weeks starting from day 10 post infection and administered 5 times a week (reference value: 4.94=+/-0.06 1og10CFU); assay type: functional
[9] = Toxicity in BALB/c mouse infected with Mycobacterium tuberculosis H37Rv assessed as body weight at 100 mg/kg, po via gavage administered for 3 weeks starting from day 10 post infection and administered 5 times a week (reference value: 24.59 +/- 0.61 g); assay type: organism-based; details: in vivo, 504 h
[10] = tested on: Mycobacterium tuberculosis; test: as §1, with “100” for “25”, “4.94 +/-0.06” for “4.94=+/-0.06”; assay type: functional

Compound	MIC [1] [µg/mL]	remaining at 0.5 h [2] [%]	remaining at 0.5 h [3] [%]	IC50 (Vero) [µg/mL]	half-life [4] [min]	half-life [5] [min]	further results
Nc1cc(C(F)(F)F)cc2c(=O)cc(N3CCN(CC4CCC(O)CC4)CC3)sc12 (centres undefined)	> 32	60	72.9				
O=C(OC1CCC(CN2CCN(c3cc(=O)c4cc(C(F)(F)F)cc([N+](=O)[O-])c4s3)CC2)CC1)c1ccc(C(F)(F)F)cc1 (centres undefined)	< 0.016	28.8	5.2	> 64	16.7	7	
COc1ccc(C(=O)OC2CCC(CN3CCN(c4cc(=O)c5cc(C(F)(F)F)cc([N+](=O)[O-])c5s4)CC3)CC2)cc1 (centres undefined)	0.121 (≈ 0.2 µM)	31	12.2	> 64	17.7	9.9	
CC(=O)NC1CCC(CN2CCN(c3cc(=O)c4cc(C(F)(F)F)cc([N+](=O)[O-])c4s3)CC2)CC1 (centres undefined)	4.71 (≈ 9.19 µM)	94.9	86.8	> 64	> 93.2	> 93.2	
O=c1cc(N2CCN(CC3CCC(OS(=O)(=O)c4cccnc4)CC3)CC2)sc2c([N+](=O)[O-])cc(C(F)(F)F)cc12 (centres undefined)	< 0.016			> 64			
Cc1cccc(C(=O)OC2CCC(CN3CCN(c4cc(=O)c5cc(C(F)(F)F)cc([N+](=O)[O-])c5s4)CC3)CC2)c1 (centres undefined)	< 0.016			> 64			
O=C(OC1CCC(CN2CCN(c3cc(=O)c4cc(C(F)(F)F)cc([N+](=O)[O-])c4s3)CC2)CC1)c1ccco1 (centres undefined)	< 0.016	0.6	1	> 64	< 4.5	4.5	
O=C(OC1CCC(CN2CCN(c3cc(=O)c4cc(C(F)(F)F)cc([N+](=O)[O-])c4s3)CC2)CC1)c1ccc(F)cc1 (centres undefined)	< 0.016	1.5	3	> 64	4.9	5.9	
O=C(OC1CCC(CN2CCN(c3cc(=O)c4cc(C(F)(F)F)cc([N+](=O)[O-])c4s3)CC2)CC1)C1CCC1 (centres undefined)	0.028 (≈ 0.0506 µM)			> 64			
O=c1cc(N2CCN(CC3CCCCC3)CC2)sc2c(NO)cc(C(F)(F)F)cc12	0.244 (≈ 0.553 µM)	47.8	19.1				
O=C(NC1CCC(CN2CCN(c3cc(=O)c4cc(C(F)(F)F)cc([N+](=O)[O-])c4s3)CC2)CC1)c1ccccc1 (centres undefined)	0.244 (≈ 0.425 µM)	90.6	92.9	44.3 (≈ 77.1 µM)	> 93.2	> 93.2	
O=C(OC1CCC(CN2CCN(c3cc(=O)c4cc(C(F)(F)F)cc([N+](=O)[O-])c4s3)CC2)CC1)c1cccc(F)c1 (centres undefined)	< 0.016			> 64			
O=C(OC1CCC(CN2CCN(c3cc(=O)c4cc(C(F)(F)F)cc([N+](=O)[O-])c4s3)CC2)CC1)c1cccs1 (centres undefined)	< 0.016	1.8	2.2	> 64	5.2	5.5	
O=c1cc(N2CCN(CC3CCC(NS(=O)(=O)c4ccccc4)CC3)CC2)sc2c([N+](=O)[O-])cc(C(F)(F)F)cc12 (centres undefined)	0.107 (≈ 0.175 µM)	95.3	90.8	> 64	> 93.2	> 93.2	
O=C(OC1CCC(CN2CCN(c3cc(=O)c4cc(C(F)(F)F)cc([N+](=O)[O-])c4s3)CC2)CC1)c1ccncc1 (centres undefined)	< 0.016	1.4	1	> 64	4.9	4.5	
O=c1cc(N2CCN(CC3CCCCC3)CC2)sc2c([N+](=O)[O-])cc(C(F)(F)F)cc12	< 0.016	80.6	82.4				solubility at 20 min [6]: < 0.1 µg/mL
Cc1ccc(C(=O)OC2CCC(CN3CCN(c4cc(=O)c5cc(C(F)(F)F)cc([N+](=O)[O-])c5s4)CC3)CC2)cc1 (centres undefined)	0.031 (≈ 0.0526 µM)	18	9.7	> 64	12.1	8.9	
Nc1cc(C(F)(F)F)cc2c(=O)cc(N3CCN(CC4CCCCC4)CC3)sc12	12.7 (≈ 29.8 µM)	69.4	0.9				
NNC(=O)c1ccncc1 [ISONIAZID]	0.039 (≈ 0.284 µM)						Activity [7]: 24.66 g; Activity [8]: 130 log10CFU
O=c1cc(N2CCN(CC3CCC(OS(=O)(=O)c4ccc5ccccc5c4)CC3)CC2)sc2c([N+](=O)[O-])cc(C(F)(F)F)cc12 (centres undefined)	< 0.016			> 64			
CC(C)C(=O)OC1CCC(CN2CCN(c3cc(=O)c4cc(C(F)(F)F)cc([N+](=O)[O-])c4s3)CC2)CC1 (centres undefined)	< 0.016			> 64			

Compound	MIC [1] [µg/mL]	remaining at 0.5 h [2] [%]	remaining at 0.5 h [3] [%]	IC50 (Vero) [µg/mL]	half-life [4] [min]	half-life [5] [min]	further results
O=C(OC1CCC(CN2CCN(c3cc(=O)c4cc(C(F)(F)F)cc([N+](=O)[O-])c4s3)CC2)CC1)C1CCCCC1 (centres undefined)	< 0.016	1.2	2.8	> 64	4.7	5.8	
O=C(OC1CCC(CN2CCN(c3cc(=O)c4cc(C(F)(F)F)cc([N+](=O)[O-])c4s3)CC2)CC1)c1ccc2ccccc2c1 (centres undefined)	0.03 (≈ 0.0479 µM)			> 64			
CO[C@H]1/C=C/O[C@@]2(C)Oc3c(C)c(O)c4c(O)c(c(/C=N/N5CCN(C)CC5)c(O)c4c3C2=O)NC(=O)/C(C)=C\C=C\[C@H](C)[C@H](O)[C@@H](C)[C@@H](O)[C@@H](C)[C@H](OC(C)=O)[C@@H]1C [RIFAMPIN]	0.025 (≈ 0.0304 µM)			> 64			
O=c1cc(N2CCN(CC3CCC(OS(=O)(=O)c4ccc5c(c4)CCO5)CC3)CC2)sc2c([N+](=O)[O-])cc(C(F)(F)F)cc12 (centres undefined)	< 0.016			> 64			
O=c1cc(N2CCN(CC3CCC(OS(=O)(=O)c4ccccc4)CC3)CC2)sc2c([N+](=O)[O-])cc(C(F)(F)F)cc12 (centres undefined)	< 0.016			> 64			
O=c1cc(N2CCN(CC3CCC(NP(=O)(Oc4ccccc4)Oc4ccccc4)CC3)CC2)sc2c([N+](=O)[O-])cc(C(F)(F)F)cc12 (centres undefined)	0.076 (≈ 0.108 µM)	66.1	74.1	> 64	50.2	69.2	
O=C(OC1CCC(CN2CCN(c3cc(=O)c4cc(C(F)(F)F)cc([N+](=O)[O-])c4s3)CC2)CC1)c1cccc(C(F)(F)F)c1 (centres undefined)	< 0.016			> 64			
COP(=O)(NC1CCC(CN2CCN(c3cc(=O)c4cc(C(F)(F)F)cc([N+](=O)[O-])c4s3)CC2)CC1)OC (centres undefined)	3.15 (≈ 5.45 µM)			> 64			
NC1CCC(CN2CCN(c3cc(=O)c4cc(C(F)(F)F)cc([N+](=O)[O-])c4s3)CC2)CC1 (centres undefined)	0.49 (≈ 1.04 µM)	107	83.6				solubility at 20 min [6]: 43.9 µg/mL (≈ 93.3 µM)
C=CC(=O)OC1CCC(CN2CCN(c3cc(=O)c4cc(C(F)(F)F)cc([N+](=O)[O-])c4s3)CC2)CC1 (centres undefined)	0.035 (≈ 0.0666 µM)			> 64			
O=C(OC1CCC(CN2CCN(c3cc(=O)c4cc(C(F)(F)F)cc([N+](=O)[O-])c4s3)CC2)CC1)c1ccccc1 (centres undefined)	< 0.016	68.1	56.4	> 64	54.2	36.2	
COc1ccccc1C(=O)OC1CCC(CN2CCN(c3cc(=O)c4cc(C(F)(F)F)cc([N+](=O)[O-])c4s3)CC2)CC1 (centres undefined)	0.031 (≈ 0.0512 µM)			> 64			
CCCC(=O)OC1CCC(CN2CCN(c3cc(=O)c4cc(C(F)(F)F)cc([N+](=O)[O-])c4s3)CC2)CC1 (centres undefined)	< 0.016			> 64			
CC(=O)OC1CCC(CN2CCN(c3cc(=O)c4cc(C(F)(F)F)cc([N+](=O)[O-])c4s3)CC2)CC1 (centres undefined)	< 0.016	0	0	> 64	< 9	< 9	
CS(=O)(=O)OC1CCC(CN2CCN(c3cc(=O)c4cc(C(F)(F)F)cc([N+](=O)[O-])c4s3)CC2)CC1 (centres undefined)	< 0.016			> 64			
COc1cccc(C(=O)OC2CCC(CN3CCN(c4cc(=O)c5cc(C(F)(F)F)cc([N+](=O)[O-])c5s4)CC3)CC2)c1 (centres undefined)	< 0.016			> 64			
O=C(OC1CCC(CN2CCN(c3cc(=O)c4cc(C(F)(F)F)cc([N+](=O)[O-])c4s3)CC2)CC1)c1ccc2c(c1)OCC2 (centres undefined)	0.179 (≈ 0.29 µM)			> 64			
O=c1cc(N2CCN(CC3CCC(O)CC3)CC2)sc2c([N+](=O)[O-])cc(C(F)(F)F)cc12 (centres undefined)	0.069 (≈ 0.146 µM)	51.2	72.7				solubility at 20 min [6]: 8.3 µg/mL (≈ 17.6 µM); Activity [9]: 24.75 g; Activity [10]: 4.06 log10CFU
CS(=O)(=O)NC1CCC(CN2CCN(c3cc(=O)c4cc(C(F)(F)F)cc([N+](=O)[O-])c4s3)CC2)CC1 (centres undefined)	> 32	111	105	48.4 (≈ 88.3 µM)	> 93.2	> 93.2	
CC(C)S(=O)(=O)OC1CCC(CN2CCN(c3cc(=O)c4cc(C(F)(F)F)cc([N+](=O)[O-])c4s3)CC2)CC1 (centres undefined)	< 0.016			> 64			
